Experimental data published in patent US20230143612A1 (Arbutus Biopharma Corporation, priority 2020, published 2023).

The compounds below were run against PD-L1 His protein / PD-1 Fc protein (Homo sapiens, UniProt Q9NZQ7) (assay: HTRF Assay (PD-1/PD-L1 interaction)). Settings: PD-L1 His 6 nM, PD-1 Fc 6 nM.
Assay type: binding
How it was run: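 HTRF: PD-L1 His (6 nM final), compound (3-fold dilutions, 20 μM to 0.001 μM final) and PD-1 Fc (6 nM final) preincubated 15 min at room temperature. Anti-human IgG-XL665 and anti-6HIS Tb cryptate (mixed at 6.7 nM and 0.35 nM) then added for 1 h at room temperature before reading.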

Sequence of PD-L1 His protein / PD-1 Fc protein (Q9NZQ7 19-238 limits assumed): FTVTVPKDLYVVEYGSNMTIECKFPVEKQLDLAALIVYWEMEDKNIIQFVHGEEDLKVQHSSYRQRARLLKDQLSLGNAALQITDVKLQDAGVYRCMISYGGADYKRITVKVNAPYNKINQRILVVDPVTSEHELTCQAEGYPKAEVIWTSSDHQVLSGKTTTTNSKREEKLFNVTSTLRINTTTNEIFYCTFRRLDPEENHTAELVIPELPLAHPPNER

**Q.** With `CNCCCOc1cc(C)c2nc(-c3cccc(-c4cccc(-c5cc(=O)n6cc(OCCCNC)cc(C)c6n5)c4Cl)c3Cl)cc(=O)n2c1` [Example 35, 2,2′-(2,2′-Dichloro-[1,1′-biphenyl]-3,3′-diyl)bis(9-methyl-7-(3-(methylamino)propoxy)-4H-pyrido[1,2-a]pyrimidin-4-one)] as the compound, how does the IC50 read?
**A.** 350 nM

**Q.** Which IC50 does the source give for `COc1nc(-c2cccc(-c3cccc(-c4ccn5c(=O)c(CN(C)CCCO)cnc5c4)c3Cl)c2Cl)ccc1CNC[C@@H]1CCC(=O)N1` [Example 317, (S)-8-(2,2′-Dichloro-3′-(6-methoxy-5-((((5-oxopyrrolidin-2-yl)methyl)amino)methyl)pyridin-2-yl)-[1,1′-biphenyl]-3-yl)-3-(((3-hydroxypropyl)(methyl)amino)methyl)-4H-pyrido[1,2-a]pyrimidin-4-one] here?
**A.** 0.2 nM

**Q.** Which IC50 does the source give for `COc1cc(-c2cccc(-c3cccc(-c4ccn5c(=O)c(CN(C)CCO)cnc5c4)c3Cl)c2Cl)cnc1CN(C)CCO` [Example 362, 8-(2,2′-Dichloro-3′-(6-(((2-hydroxyethyl)(methyl)amino)methyl)-5-methoxypyridin-3-yl)-[1,1′-biphenyl]-3-yl)-3-(((2-hydroxyethyl)(methyl)amino)methyl)-4H-pyrido[1,2-a]pyrimidin-4-one] here?
**A.** 36 nM

**Q.** How did the IC50 turn out when `Cc1c(COc2cc(OCc3cncc(C#N)c3)c(CNCCO)cc2Cl)cccc1-c1cccc(-c2ccn3c(=O)c(CNCCO)cnc3c2)c1` [Example 4, 5-((4-Chloro-2-(((2-hydroxyethyl)amino)methyl)-5-((3′-(3-(((2-hydroxyethyl)amino)methyl)-4-oxo-4H-pyrido[1,2-a]pyrimidin-8-yl)-2-methyl-[1,1′-biphenyl]-3-yl)methoxy)phenoxy)methyl)nicotinonitrile] was run?
**A.** 2 nM

**Q.** How did the IC50 turn out when `COc1nc(-c2cccc(-c3cccc(-c4ccn5c(=O)c(CNC[C@H](C)O)c(OC)nc5c4)c3Cl)c2Cl)ccc1CNC[C@@H]1CCC(=O)N1` [Example 262] was run?
**A.** 6.1 nM

**Q.** How did the IC50 turn out when `COC(=O)C12CCC(CC1)N(Cc1ccc(-c3cccc(-c4cccc(-c5ccn6c(=O)c(CNC[C@@H]7CCC(=O)N7)cnc6c5)c4Cl)c3Cl)nc1OC)C2` [Example 121, Methyl (S)-2-((6-(2,2′-dichloro-3′-(4-oxo-3-((((5-oxopyrrolidin-2-yl)methyl)amino)methyl)-4H-pyrido[1,2-a]pyrimidin-8-yl)-[1,1′-biphenyl]-3-yl)-2-methoxypyridin-3-yl)methyl)-2-azabicyclo[2.2.2]octane-4-carboxylate] was run?
**A.** 1 nM

**Q.** `COc1nc(-c2cccc(-c3cccc(-c4ccc5c(n4)CCCC5NC[C@H](C)O)c3Cl)c2Cl)ccc1CNC[C@@H]1CCC(=O)N1` (mixture of isomers) [Example 390, (5S)-5-((((6-(2,2′-Dichloro-3′-(5-(((S)-2-hydroxypropyl)amino)-5,6,7,8-tetrahydroquinolin-2-yl)-[1,1′-biphenyl]-3-yl)-2-methoxypyridin-3-yl)methyl)amino)methyl)pyrrolidin-2-one] was tested. Which IC50 did it give?
**A.** 6.5 nM

**Q.** With `COc1nc(-c2cccc(-c3cccc(-c4ccn5c(=O)c(CNC[C@@H]6CCC(=O)N6)ccc5c4)c3Cl)c2Cl)cnc1CNC[C@@H]1CCC(=O)N1` [Example 107, 8-(2,2′-Dichloro-3′-(6-methoxy-5-(((((S)-5-oxopyrrolidin-2-yl)methyl)amino)methyl)pyrazin-2-yl)-[1,1′-biphenyl]-3-yl)-3-(((((S)-5-oxopyrrolidin-2-yl)methyl)amino)methyl)-4H-quinolizin-4-one] as the compound, how does the IC50 read?
**A.** 0.4 nM

**Q.** Which IC50 does the source give for `COc1nc(-c2cccc(-c3cccc(-c4cc5c(=O)n(C)c(CNC(C)C)nn5c4)c3Cl)c2Cl)ccc1CNC[C@@H]1CCC(=O)N1` [Example 477, 6-[2-Chloro-3-[2-chloro-3-[6-methoxy-5-[[[(2S)-5-oxopyrrolidin-2-yl]methylamino]methyl]-2-pyridyl]phenyl]phenyl]-2-[(isopropylamino)methyl]-3-methyl-pyrrolo[2,1-f][1,2,4]triazin-4-one] here?
**A.** 17 nM

**Q.** How did the IC50 turn out when `COc1nc(-c2cccc(-c3cccc(-c4ccn5c(=O)c(CNC[C@@H]6CCC(=O)N6)cnc5c4)c3C)c2Cl)ccc1CNC[C@@H]1CCC(=O)N1` [Example 32, 8-(2′-Chloro-3′-(6-methoxy-5-(((((S)-5-oxopyrrolidin-2-yl)methyl)amino)methyl)pyridin-2-yl)-2-methyl-[1,1′-biphenyl]-3-yl)-3-(((((S)-5-oxopyrrolidin-2-yl)methyl)amino)methyl)-4H-pyrido[1,2-a]pyrimidin-4-one] was run?
**A.** 2.3 nM

**Q.** With `COc1nc(CC2CCc3c(-c4cccc(-c5ccn6c(=O)c(CNC[C@@H]7CCC(=O)N7)cnc6c5)c4Cl)cccc32)c(Cl)cc1CNC[C@@H]1CCC(=O)N1` (mixture of isomers) [Example 213, 8-(2-chloro-3-(1-((3-chloro-6-methoxy-5-(((((S)-5-oxopyrrolidin-2-yl)methyl)amino)methyl)pyridin-2-yl)methyl)-2,3-dihydro-1H-inden-4-yl)phenyl)-3-(((((S)-5-oxopyrrolidin-2-yl)methyl)amino)methyl)-4H-pyrido[1,2-a]pyrimidin-4-one] as the compound, how does the IC50 read?
**A.** 3700 nM

**Q.** `COc1cc(-c2cccc(-c3cccc(-c4ccn5c(=O)c(CNC[C@@H]6CCC(=O)N6)cnc5c4)c3Cl)c2Cl)c(F)cc1CNC[C@@H]1CCC(=O)N1` [Example 106, 8-(2,2′-Dichloro-2″-fluoro-5″-methoxy-4″-(((((S)-5-oxopyrrolidin-2-yl)methyl)amino)methyl)-[1,1′:3′,1″-terphenyl]-3-yl)-3-(((((S)-5-oxopyrrolidin-2-yl)methyl)amino)methyl)-4H-pyrido[1,2-a]pyrimidin-4-one] was tested. Which IC50 did it give?
**A.** 4.9 nM

**Q.** How did the IC50 turn out when `COc1nc(-c2cccc(-c3cccc(-c4ncc5c(n4)CCN(C[C@@H]4CCC(=O)N4)C5)c3Cl)c2Cl)ccc1CNC[C@@H]1CCC(=O)N1` [Example 443, (S)-5-((((6-(2,2′-Dichloro-3′-(6-(((S)-5-oxopyrrolidin-2-yl)methyl)-5,6,7,8-tetrahydropyrido[4,3-d]pyrimidin-2-yl)-[1,1′-biphenyl]-3-yl)-2-methoxypyridin-3-yl)methyl)amino)methyl)pyrrolidin-2-one] was run?
**A.** 0.1 nM

**Q.** With `COc1nc(-c2cccc(-c3cccc(-c4cnc(NCCNC(C)=O)c(OC)n4)c3Cl)c2Cl)cnc1NCCNC(C)=O` [Example 38, N,N′-((((2,2′-Dichloro-[1,1′-biphenyl]-3,3′-diyl)bis(3-methoxypyrazine-5,2-diyl))bis(azanediyl))bis(ethane-2,1-diyl))diacetamide] as the compound, how does the IC50 read?
**A.** 20 nM

**Q.** With `COc1nc(-c2cccc(-c3cccc(-c4ccn5c(=O)c(CN6C[C@@H](O)[C@H](O)C6)cnc5c4)c3Cl)c2Cl)ccc1CNC[C@@H]1CCC(=O)N1` [Example 347, 8-(2,2′-Dichloro-3′-(6-methoxy-5-(((((S)-5-oxopyrrolidin-2-yl)methyl)amino)methyl)pyridin-2-yl)-[1,1′-biphenyl]-3-yl)-3-(((3R,4R)-3,4-dihydroxypyrrolidin-1-yl)methyl)-4H-pyrido[1,2-a]pyrimidin-4-one] as the compound, how does the IC50 read?
**A.** 530 nM

**Q.** `COc1nc(-c2cccc(-c3cccc(-c4cc5c(=O)n(C)c(CN(C)CCO)nn5c4)c3Cl)c2Cl)ccc1CNC[C@@H]1CCC(=O)N1` [Example 395, (S)-6-(2,2′-Dichloro-3′-(6-methoxy-5-((((5-oxopyrrolidin-2-yl)methyl)amino)methyl)pyridin-2-yl)-[1,1′-biphenyl]-3-yl)-2-(((2-hydroxyethyl)(methyl)amino)methyl)-3-methylpyrrolo[2,1-f][1,2,4]triazin-4(3H)-one] was tested. Which IC50 did it give?
**A.** 6.7 nM
